The values below come from patent US11932638B2, “Ion channel inhibitor compounds for cancer treatment” (Centre National de la Recherche Scientifique, priority 2017, dated 2024).

The term inhibition denotes the relative decrease from the control value, in per cent.

For the experiment, the target named is T1, SK3 channel (Rattus norvegicus, UniProt P70605).
T1 construct: expressed in transfected cells
Nature of the experiment: Conventional manual patch clamp on HEK-rSK3 cells, SK3 channel activity. The settings on record: for inhibition at 0.5 µM: 500 nM. The format is cell-based. From the text: Cell Lines Used to Screen the Molecules on the Activity of SKCa Channels (Small Conductance Calcium-Activated Potassium Channel; SK1, SK2 and SK3) and IKCa Channels (Intermediate Conductance Calcium-Activated Potassium Channel, SK4)
Use was made of the HEK 293 T line, a foetal kidney line which was immortalised with the T antigen of the […] simian virus. This cell line is widely used on account of the ease with which these cells can be transfected with plasmids or other transfection vectors. Four stable lines were used for patch clamp experiments: HEK-hSK1, HEK-rSK2, HEK-rSK3 and HEK-IKCa/SK4 which respectively overexpress the SK1, SK2, SK3 and SK4 channels. The lines were obtained via stable transduction (Girault et al., Current Cancer Drug Targets, 2011, 11, 1111-25) and are those already routinely used to assay SK3 modulators (Potier et al. Br J Pharmacol. 2011 January; 162(2):464-79; Sevrain et al., Med. Chem. Commun., 2012, 3, 1471-1478; Sevrain et al., Organic & Biomolecular Chemistry, 2013 Jul. 21; 11(27):4479-87, Berthe W, Sevrain C M, Chantôme A, Bouchet A M, Gueguinou M, Fourbon Y, Potier-Cartereau M, Haelters J P, Couthon-Gourvès H, Vandier C, Jaffrès P A. ChemMedChem. 2016 Jul. 19; 11(14):1531-9). […] These lines therefore enabled us without difficulty to examine the effect of the molecules on the SK3 channel, and also the selectivity thereof by means of the patch clamp technique. The inhibitory activity of the non-toxic molecules was assayed on the activity of the SK3 channel. The selectivity of the molecules was determined by patch clamp on HEK cell models stably expressing the SK3 channel but also the SK1, SK2, SK3 or IKCa/SK4 channels.
Electrophysiology/Patch-Clamp
Patch clamp is a technique allowing measurement of the activity of ion channels by recording macroscopic (whole cell configuration) or microscopic (e.g. inside out configuration) ionic currents through the plasma membrane. For assay of the effect of the molecules on the SKCa/IKCa channels, two complementary techniques were used: conventional, manual patch clamp and automated patch clamp with the Nanion NPC-16 Patchliner Quattro (4 channels) (Potier et al., Mol Cancer Ther 2006, 5, 2946-53; Chantome et al., Exp Cell Res 2009, 315, 3620-30; Potier et al., Biochem Biophys Res Commun 2010, 397, 42-7; Girault et al., Current Cancer Drug Targets, 2011, 11, 1111-25; Sevrain et al., Med. Chem. Commun., 2012, 3, 1471-1478; Sevrain et al., Organic & Biomolecular Chemistry, 2013 Jul. 21; 11(27):4479-87; Chantome et al., Cancer Research, 2013 Aug. 1; 73(15):4852-61, Gueguinou M, Crottès D, Chantôme A, Rapetti-Mauss R, Potier-Cartereau M, Clarysse L, Girault A, Fourbon Y, Jézéquel P, Guérin-Charbonnel C, Fromont G, Martin P, Pellissier B, Schiappa R, Chamorey E, Mignen O, Uguen A, Borgese F, Vandier C, Soriani O. Oncogene. 2017 Jan. 23. doi: 10.1038/onc.2016.501, Berthe W, Sevrain C M, Chantôme A, Bouchet A M, Gueguinou M, Fourbon Y, Potier-Cartereau M, Haelters J P, Couthon-Gourvès H, Vandier C, Jaffrès P A. ChemMedChem. 2016 Jul. 19; 11(14):1531-9, Guéguinou M, Harnois T, Crottes D, Uguen A, Deliot N, Gambade A, Chantôme A, Haelters J P, Jaffrès P A, Jourdan M L, Weber G, Soriani O, Bougnoux P, Mignen O, Bourmeyster N, Constantin B, Lecomte T, Vandier C, Potier-Cartereau M. Oncotarget. 2016 Jun. 14; 7(24):36168-36184. doi: 10.18632/oncotarget.8786).
For conventional patch clamp, the micropipette is filled with an intrapipette medium—IPM (see composition below) and allows measurement of ionic currents at the same time as allowing maintaining of membrane potential (voltage clamp). The experimental device was composed of an anti-vibration table supporting an inverted microscope (Nikon, Eclipse TE 300). The Petri dish (Corning Incorporated, USA), containing the cells was placed on a plexiglass plate attached to the microscope stage. The pipette was connected to the amplifier (Axopatch 200B) as reference electrode which allowed closing of the electrical circuit. […]
(In general: Patch clamp records ionic current or voltage across a cell membrane.)

Like-named read-outs stand apart in the source and are kept apart here.

Consider `Clc1ccc(CNc2ncc3ncccc3n2)cc1Cl` [Compound 4, N-(3,4-Dichlorobenzyl)pyrido[3,2-d]pyrimidin-2-amine], for which the inhibition at 10 µM (10 μM) is 3.6%.
Turning to `c1ccc2c(c1)CCCC2Nc1ncc2ncccc2n1` (stereo not drawn) [Compound 5, N-(1,2,3,4-Tetrahydronaphthalen-1-yl)pyrido[3,2-d]pyrimidin-2-amine], the inhibition at 10 µM (10 μM) worked out at 7.7%.
Same read-out and setting: as for `Clc1nc(NC2CCCc3ccccc32)c2ncccc2n1` (stereo not drawn) [Compound 6, 2-Chloro-N-(1,2,3,4-tetrahydronaphthalen-1-yl)pyrido[3,2-d]pyrimidin-4-amine], the figure is 2.65%; as for `Clc1ccc(CNc2ncnc3cccnc23)cc1Cl` [Compound 14, N-(3,4-Dichlorobenzyl)pyrido[3,2-d]pyrimidin-4-amine], 1.52%.
Regarding `N#Cc1nc(NC2CCCc3ccccc32)c2ncccc2n1` (stereo not drawn) [Compound 32, 4-(1,2,3,4-tetrahydronaphthalen-1-ylamino)pyrido[3,2-d]pyrimidine-2-carbonitrile], the inhibition at 0.5 µM was 27.7%. Further, the inhibition at 0.05 µM (50 nM) was determined as 23.6%.
For the molecule `Nc1nc(NC2CCCc3ccccc32)c2ncccc2n1` (stereo not drawn) [Compound 33, N^4-(1,2,3,4-tetrahydronaphthalen-1-yl)pyrido[3,2-d]pyrimidine-2,4-diamine], where the note is “50 nM”, the inhibition at 0.05 µM is 30.5%. In addition, the inhibition at 0.1 µM (100 nM) is 53.2%. Moreover, under “10 μM”, the inhibition at 10 µM turned out to be 71.5%.
Taken in the same sequence, the figures for `Clc1cnc2c(NC3CCCc4ccccc43)ncnc2c1` (stereo not drawn) [Compound 38, 7-Chloro-N-(1,2,3,4-tetrahydronaphthalen-1-yl)pyrido[3,2-d]pyrimidin-4-amine] were 31.4%, 51.9% and 74%.
Consider `c1ccc2c(c1)CCCC2Nc1ncnc2ncccc12` (stereo not drawn) [Compound 47, N-(1,2,3,4-Tetrahydronaphthalen-1-yl)pyrido[2,3-d]pyrimidin-4-amine], for which the inhibition at 10 µM (10 μM) came out at 7.54%.
For the molecule `Fc1nc(N[C@H]2CCCc3ccccc32)c2ncccc2n1` [Compound 49, (S)-2-Fluoro-N-(1,2,3,4-tetrahydronaphthalen-1-yl)pyrido [3,2-d]pyrimidin-4-amine], the inhibition at 0.5 µM came out at 75.8%. Further, the inhibition at 0.1 µM (100 nM) was determined as 37.1%. Moreover, the inhibition at 0.25 µM (250 nM) was determined as 83.1%.
As to `c1ccc2c(c1)OCCC2Nc1ncnc2cccnc12` (stereo not drawn) [Compound 62, N-(3,4-dihydro-2H-1-benzopyran-4-yl)pyrido[3,2-d]pyrimidin-4-amine], the inhibition at 0.05 µM (50 nM) amounted to 32.1%. The inhibition at 0.1 µM (100 nM) amounted to 46.8%. Also, the inhibition at 10 µM (10 μM) stood at 54.4%.
For the molecule `Cc1cc(C)n(-c2nc(NC3CCCc4ccccc43)c3ncccc3n2)n1` (stereo not drawn) [Compound 67, 2-(3,5-Dimethylpyrazol-1-yl)-N-tetralin-1-yl-pyrido[3,2-d]pyrimidin-4-amine], the inhibition at 0.5 µM came to 39.3%. Further, the inhibition at 0.1 µM (100 nM) turned out to be 35.3%. For the same molecule, the inhibition at 1 µM (1 μM) was found to be 82.4%.
For the molecule `CCCCCCOc1cnc2c(NC3CCCc4ccccc43)ncnc2c1` (stereo not drawn) [Compound 74, 7-Hexoxy-N-tetralin-1-yl-pyrido[3,2-d]pyrimidin-3-ium-4-amine chloride], the inhibition at 0.5 µM was 48.5%. In addition, the inhibition at 0.05 µM (50 nM) is 18.4%.
Taken in the same sequence, the figures for `c1ccc2c(Nc3ncnc4cccnc34)cccc2c1` [Compound 86, N-(1-Naphtyl)pyrido[3,2-d]pyrimidin-4-amine] were 18% and -9.01%.
On the same counts, the results for `c1ccc2c(c1)CCC2Nc1ncnc2cccnc12` (stereo not drawn) [Compound 87, N-(2,3-dihydro-1H-inden-1-yl)pyrido[3,2-d]pyrimidin-4-amine] are 47.4% and 22.9%.
On the same counts, the results for `COc1cccc2c1CCCC2Nc1ncnc2cccnc12` (stereo not drawn) [Compound 88, N-(5-methoxy-1,2,3,4-tetrahydronaphthalen-1-yl)pyrido[3,2-d]pyrimidin-4-amine] are 54.8% and 25.8%.
Take `Fc1ccc2c(c1)C(Nc1ncnc3cccnc13)CCC2` (stereo not drawn) [Compound 90, N-(7-fluoro-1,2,3,4-tetrahydronaphthalen-1-yl)pyrido[3,2-d]pyrimidin-4-amine]: the inhibition at 0.5 µM stood at 39.9%. Also, the inhibition at 0.05 µM (50 nM) is 16.1%.
On to `CC1(C)CCC(Nc2ncnc3cccnc23)c2ccccc21` (stereo not drawn) [Compound 93, N-(4,4-dimethyl-1,2,3,4-tetrahydronaphthalen-1-yl)pyrido[3,2-d]pyrimidin-4-amine], for which the inhibition at 0.05 µM (50 nM) worked out at 45.9%. Under “100 nM”, the inhibition at 0.1 µM turned out to be 53.5%. Besides, the inhibition at 10 µM (10 μM) is 71.8%.
Take `COCOc1ccc2c(c1)CCCC2N` (stereo not drawn) [Compound 103, 6-(Methoxymethoxy)-1,2,3,4-tetrahydronaphthalen-1-amine]: the inhibition at 0.5 µM was 46.9%. The inhibition at 0.05 µM (50 nM) was found to be 30.7%. The inhibition at 0.1 µM (100 nM) is 57.9%. Moreover, the inhibition at 10 µM (10 μM) came out at 83.8%.
Take `OC1CCc2ccccc2C1Nc1ncnc2cccnc12` (stereo not drawn) [Compound 107, 1-(pyrido[3,2-d]pyrimidin-4-ylamino)-1,2,3,4-tetrahydro-naphthalen-2-ol]: the inhibition at 0.05 µM (50 nM) is 29.7%. The inhibition at 0.1 µM (100 nM) is 46.8%. Where the note is “10 μM”, the inhibition at 10 µM came out at 54.7%.
Regarding `Clc1ccc2ncnc(N[C@H]3CCCc4ccccc43)c2n1` [Compound 133, 6-Chloro-N-[(1S)-tetralin-1-yl]pyrido[3,2-d]pyrimidin-4-amine], the inhibition at 0.05 µM (50 nM) turned out to be 39%. Also, the inhibition at 0.1 µM (100 nM) was determined as 56.3%. In addition, the inhibition at 10 µM (10 μM) worked out at 67.3%.
For `OC1CCC(Nc2ncnc3cccnc23)c2ccccc21` (stereo not drawn) [Compound 142-E1, 4-(Pyrido[3,2-d]pyrimidin-4-ylamino)tetralin-1-ol], the inhibition at 0.05 µM (50 nM) is 35.3%. Besides, the “% SK3 inhibition” value was 100 nM: 44.55 ± 5.67 (N = 5) % (100 nM, 0.1 µM) and 10 μM: 57.16 ± 5.51 (N = 4) % (10 μM).
For the molecule `OC1CCC(Nc2ncnc3cccnc23)c2ccccc21` (stereo not drawn) [Compound 142-E2, 4-(Pyrido[3,2-d]pyrimidin-4-ylamino)tetralin-1-ol], the “% SK3 inhibition” value (50 nM, 0.05 µM) is recorded as 50 nM: 35.72 ± 1.79 (N = 4) %; the “% SK3 inhibition” value (100 nM, 0.1 µM) was 100 nM: 59.42 ± 3.43 (N = 4) %; the “% SK3 inhibition” value (10 μM) is listed as 10 μM: 75.11 ± 2.87 (N = 4) %.
Turning to `OC1CCC(Nc2ncnc3cccnc23)c2ccccc21` (stereo not drawn) [Compound 142-E3, 4-(Pyrido[3,2-d]pyrimidin-4-ylamino)tetralin-1-ol], the “% SK3 inhibition” value reads like this: (50 nM, 0.05 µM) 50 nM: 30.69 ± 3.07 (N = 4) %; (100 nM, 0.1 µM) 100 nM: 49.71 ± 4.48 (N = 4) %; (10 μM) 10 μM: 58.9 ± 6.08 (N = 4) %.
As to `OC1CCC(Nc2ncnc3cccnc23)c2ccccc21` (stereo not drawn) [Compound 142-E4, 4-(Pyrido[3,2-d]pyrimidin-4-ylamino)tetralin-1-ol], the “% SK3 inhibition” value was 10 μM: 48.28 ± 5.99 (N = 3) %. Besides, the “% SK3 inhibition” value (50 nM, 0.05 µM) is recorded as 50 nM: 21.9 ± 2.32 (N = 3) %. Further, the “% SK3 inhibition” value (100 nM, 0.1 µM) is 100 nM: 37.97 ± 3.99 (N = 3) %.
